Source: patent publication US10889611B2, “Sialyltransferase inhibitors and uses thereof” (Academia Sinica, priority 2015, dated 2021)

Columns and labels:
[1] = molecular target: T1, α2,6(N)-sialyltransferases ST6GALI (Homo sapiens, UniProt P15907); assay: Sialyltransferase inhibition assay, ST6GALI (reverse-phase HPLC); assay type: biochemical; conditions: for IC50: IC50 (μM) ST6GALI, α2,6-N-link
T1 construct: purchased RnDSystems.com (R&D Systems)
T1 sequence (P15907 1-406): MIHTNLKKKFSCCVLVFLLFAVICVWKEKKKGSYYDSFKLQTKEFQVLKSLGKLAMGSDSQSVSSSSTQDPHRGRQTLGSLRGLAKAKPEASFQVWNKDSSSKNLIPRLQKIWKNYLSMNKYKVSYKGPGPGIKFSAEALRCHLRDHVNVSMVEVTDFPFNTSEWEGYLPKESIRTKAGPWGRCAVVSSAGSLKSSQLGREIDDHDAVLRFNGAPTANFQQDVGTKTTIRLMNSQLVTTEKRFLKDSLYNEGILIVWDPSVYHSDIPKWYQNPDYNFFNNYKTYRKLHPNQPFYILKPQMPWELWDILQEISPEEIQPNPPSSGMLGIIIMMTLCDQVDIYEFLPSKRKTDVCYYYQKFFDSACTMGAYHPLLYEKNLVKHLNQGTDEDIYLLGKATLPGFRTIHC
Method: (§1) The enzymes analyzed in the present study included rat ST3Gal(I), rat ST3Gal(III), and human ST6Gal(I). Rat ST3Gal(I) and rat ST3Gal(Ill), were purchased from Calbiochem®, while human ST6Gal(I) was purchased from RnDSystems.com.
(§2) Sialyltransferase inhibition assay (α2,6-N-ST) was performed as follows: Sialyltransferase activity was determined by measuring the level of the end product of sialylated saccharides with reverse-phase HPLC. The assay mixtures contained the following components: 200 mM MES buffer; 100 mM NaCl; 0.5 mM EDTA; 0.01% Triton X-100; 1.4 mU ST6GALI; 25 μM Galβ1-4GlcNAc; 1 mM CMP-Neu5Ac and different concentration of Sialyltransferase inhibitors to a total volume of 50 μl. The assay mixture was incubated at 37° C. for 15 mins and then quenched by heating up to 101° C. for 10 mins. The sialylated product is resolved with reversed-phase HPLC. Kinetic data were obtained by fitting the initial rate data to the nonlinear regression equation.
(§3) Effects of the present compounds on the activity of sialyltransferase, including α2,3(N)-sialyltransferase ST3GALIII, α2,6(N)-sialyltransferases ST6GALI, and α2,3(O)-sialyltransferase ST3GALI, were determined in accordance with procedures described in the “Materials and Methods” section, and results are summarized in Table 1.

[2] = molecular target: T2, α2,3(O)-sialyltransferase ST3GALI (Rattus norvegicus, UniProt Q6H8N0); assay: Sialyltransferase inhibition assay, ST3GALI (reverse-phase HPLC); assay type: biochemical; conditions: measured at 500 μM; read-out: ST3GALI inhibition percentage
T2 construct: purchased Calbiochem
T2 sequence (Q6H8N0 1-340): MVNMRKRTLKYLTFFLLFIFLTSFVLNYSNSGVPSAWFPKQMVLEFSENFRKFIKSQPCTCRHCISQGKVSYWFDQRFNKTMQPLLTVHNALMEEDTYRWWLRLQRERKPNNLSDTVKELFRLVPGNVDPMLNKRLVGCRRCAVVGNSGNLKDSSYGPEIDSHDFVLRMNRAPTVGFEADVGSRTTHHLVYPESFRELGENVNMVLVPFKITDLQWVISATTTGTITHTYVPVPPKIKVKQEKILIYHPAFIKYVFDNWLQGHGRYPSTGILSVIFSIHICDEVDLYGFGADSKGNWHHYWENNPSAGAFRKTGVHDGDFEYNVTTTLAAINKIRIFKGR
Method: as §1
as §2, with “mU ST3GALI; 2.5 mM T-antigen;” for “mU ST6GALI; 25 μM Galβ1-4GlcNAc;”, “to 101′C” for “to 101° C.”, “product was” for “product is”, “resolved by” for “resolved with”
as §3

Work on `C[C@H](Nc1ccc([N+](=O)[O-])c2nonc12)C(=O)N[C@@H]1CC[C@]2(C)C3CC[C@@]4(C)C(CCC4[C@H](C)CCC(=O)OCCOCCOCCN=[N+]=[N-])C3CC[C@@H]2C1` (stereo partly drawn) yielded a melting point of 69 to 70 °C.

Work on `C[C@H](CCC(=O)OCCOCCOCCN=[N+]=[N-])C1CCC2C3CC[C@@H]4C[C@H](NC(=O)[C@H](CS)Nc5ccc([N+](=O)[O-])c6nonc56)CC[C@]4(C)C3CC[C@@]21C` (stereo partly drawn) yielded a melting point of 68 to 69 °C.

With `C[C@H](CCC(=O)OCCOCCOCCN=[N+]=[N-])C1CCC2C3CC[C@@H]4C[C@H](NC(=O)[C@H](CSC(C)(C)C)Nc5ccc([N+](=O)[O-])c6nonc56)CC[C@]4(C)C3CC[C@@]21C` (stereo partly drawn) the melting point was 64 to 65 °C.

`C[C@H](CCC(=O)OCCOCCOCCN=[N+]=[N-])C1CCC2C3CC[C@@H]4C[C@H](NC(=O)[C@H](CCC(=O)O)Nc5ccc([N+](=O)[O-])c6nonc56)CC[C@]4(C)C3CC[C@@]21C` (stereo partly drawn) gave a melting point of 77 to 78 °C.

`C[C@H](CCC(=O)OCCOCCOCCN=[N+]=[N-])C1CCC2C3CC[C@@H]4C[C@H](NC(=O)[C@H](CCCCN)Nc5ccc([N+](=O)[O-])c6nonc56)CC[C@]4(C)C3CC[C@@]21C` (stereo partly drawn) showed a melting point of 84 to 85 °C.

In the case of `C[C@H](CCC(=O)OCCOCCOCCN=[N+]=[N-])C1CCC2C3CC[C@@H]4C[C@H](NC(=O)[C@H](CCCNC(=N)N)Nc5ccc([N+](=O)[O-])c6nonc56)CC[C@]4(C)C3CC[C@@]21C` (stereo partly drawn), the melting point is reported as 78 to 79 °C.

`C[C@H](CCC(=O)OCCOCCOCCN=[N+]=[N-])C1CCC2C3CC[C@@H]4C[C@H](NC(=O)[C@H](Cc5ccc(O)cc5)Nc5ccc([N+](=O)[O-])c6nonc56)CC[C@]4(C)C3CC[C@@]21C` (stereo partly drawn) gave a melting point of 72 to 73 °C.

Work on `C[C@H](CCC(=O)OCCOCCOCCN=[N+]=[N-])C1CCC2C3CC[C@@H]4C[C@H](NC(=O)[C@H](Cc5ccccc5)Nc5ccc([N+](=O)[O-])c6nonc56)CC[C@]4(C)C3CC[C@@]21C` (stereo partly drawn) yielded a melting point of 65 to 66 °C.

For `C[C@H](CCC(=O)OCCOCCOCCN=[N+]=[N-])C1CCC2C3CC[C@@H]4C[C@H](NC(=O)[C@H](Cc5c[nH]c6ccccc56)Nc5ccc([N+](=O)[O-])c6nonc56)CC[C@]4(C)C3CC[C@@]21C` (stereo partly drawn), the melting point was 86 to 87 °C.

`C[C@H](CCC(=O)OCCOCCOCCN=[N+]=[N-])C1CCC2C3CC[C@@H]4C[C@H](NC(=O)C5CCCN5c5ccc([N+](=O)[O-])c6nonc56)CC[C@]4(C)C3CC[C@@]21C` (stereo partly drawn) showed a melting point of 62 to 64 °C.

For `C[C@H](CCC(=O)O)C1CCC2C3CC[C@@H]4C[C@H](Nc5ccc([N+](=O)[O-])c6nonc56)CC[C@]4(C)C3CC[C@@]21C` (stereo partly drawn), the melting point was 137 to 139 °C.

For `C[C@H](CCC(=O)O)C1CCC2C3CC[C@@H]4C[C@H](Nc5ccc6ccccc6n5)CC[C@]4(C)C3CC[C@@]21C` (stereo partly drawn), the melting point was 140 to 142 °C.

Work on `C[C@H](CCC(=O)O)C1CCC2C3CC[C@@H]4C[C@H](NC5=C(Cl)C(=O)c6ccccc6C5=O)CC[C@]4(C)C3CC[C@@]21C` (stereo partly drawn) yielded a melting point of 120 to 122 °C.

Work on `COc1cc2nc(Cl)nc(N[C@@H]3CC[C@]4(C)C5CC[C@@]6(C)C(CCC6[C@H](C)CCC(=O)O)C5CC[C@@H]4C3)c2cc1OC` (stereo partly drawn) yielded a melting point of 178 to 180 °C.

`C[C@H](CCC(=O)O)C1CCC2C3CC[C@@H]4C[C@H](Nc5nc6ccccc6nc5Cl)CC[C@]4(C)C3CC[C@@]21C` (stereo partly drawn) gave a melting point of 118 to 120 °C.

`C[C@H](CCC(=O)O)C1CCC2C3CC[C@@H]4C[C@H](NS(=O)(=O)c5c(Cl)ccc6nonc56)CC[C@]4(C)C3CC[C@@]21C` (stereo partly drawn) showed a melting point of 128 to 130 °C.

For `C[C@H](CCC(=O)O)C1CCC2C3CC[C@@H]4C[C@H](NS(=O)(=O)c5cccc6c(N(C)C)cccc56)CC[C@]4(C)C3CC[C@@]21C` (stereo partly drawn), the melting point was 136 to 138 °C.

Work on `C[C@H](CCC(=O)O)C1CCC2C3CC[C@@H]4C[C@H](NS(=O)(=O)c5cc6ccccc6s5)CC[C@]4(C)C3CC[C@@]21C` (stereo partly drawn) yielded a melting point of 132 to 134 °C.

With `C[C@H](CCC(=O)O)C1CCC2C3CC[C@@H]4C[C@H](NS(=O)(=O)c5cccc6cccnc56)CC[C@]4(C)C3CC[C@@]21C` (stereo partly drawn) the melting point was 138 to 140 °C.

`C[C@H](CCC(=O)O)C1CCC2C3CC[C@@H]4C[C@H](NC(=O)[C@H](CC(=O)O)Nc5ccc([N+](=O)[O-])c6nonc56)CC[C@]4(C)C3CC[C@@]21C` (stereo partly drawn) gave a melting point of 134 to 136 °C.

Compound `C[C@H](CCC(=O)O)C1CCC2C3CC[C@@H]4C[C@H](NC(=O)[C@@H](N)CC(=O)O)CC[C@]4(C)C3CC[C@@]21C` (stereo partly drawn) has a melting point of 158 to 160 °C.

Work on `C[C@H](CCC(=O)OCCOCCN=[N+]=[N-])C1CC[C@H]2[C@@H]3CC[C@@H]4C[C@H](OC(=O)[C@H](CC(=O)O)Nc5ccc([N+](=O)[O-])c6nonc56)CC[C@]4(C)[C@H]3CC[C@]12C` (stereo partly drawn) [Compound 2, (3S)-4-(((3R,5R,8R,9S,10S,13R,14S)-17-((R)-5-(2-(2-azidoethoxy)ethoxy)-5-oxopentan-2-yl)-10,13-dimethylhexadecahydro-1H-cyclopenta[a]phenanthren-3-yl)oxy)-3-((7-nitrobenzo[c][1,2,5]oxadiazol-4-yl)amino)-4-oxobutanoic acid] yielded an IC50 [1] of 3 to 7 µM and a melting point of 75 to 76 °C.

In the case of `C[C@H](CCC(=O)OCCN=[N+]=[N-])C1CC[C@H]2[C@@H]3CC[C@@H]4C[C@H](OC(=O)[C@H](CC(=O)O)NC(=O)c5ccc([N+](=O)[O-])cc5)CC[C@]4(C)[C@H]3CC[C@]12C` (stereo partly drawn) [Compound 6, (3S)-4-(((3R,5R,8R,9S,10S,13R,14S)-17-((R)-5-(2-azidoethoxy)-5-oxopentan-2-yl)-10,13-dimethylhexadecahydro-1H-cyclopenta[a]phenanthren-3-yl)oxy)-3-(4-nitrobenzamido)-4-oxobutanoic acid], the “selectivity ratio ST3GALI/ST6GALI” value [1] is reported as >70, the IC50 [1] is reported as 7.21 ± 0.1 µM and the inhibition at 500 µM [2] is reported as 0%. It also gave a melting point of 61 to 62 °C.

In the case of `C[C@H](CCC(=O)OCCOCCOCCOCCN=[N+]=[N-])C1CC[C@H]2[C@@H]3CC[C@@H]4C[C@H](OC(=O)[C@H](CC(=O)O)NC(=O)c5ccc([N+](=O)[O-])cc5)CC[C@]4(C)[C@H]3CC[C@]12C` (stereo partly drawn) [Compound 9, (3S)-4-(((3R,5R,8R,9S,10S,13R,14S)-17-((R)-1-azido-13-oxo-3,6,9,12-tetraoxaheptadecan-16-yl)-10,13-dimethylhexadecahydro-1H-cyclopenta[a]phenanthren-3-yl)oxy)-3-(4-nitrobenzamido)-4-oxobutanoic acid], the “selectivity ratio ST3GALI/ST6GALI” value [1] is reported as >88, the IC50 [1] is reported as 5.7 ± 0.36 µM and the inhibition at 500 µM [2] is reported as 0%.

For `C[C@H](CCC(=O)OCCOCCOCCOCCOCCN=[N+]=[N-])C1CC[C@H]2[C@@H]3CC[C@@H]4C[C@H](OC(=O)[C@H](CC(=O)O)NC(=O)c5ccc([N+](=O)[O-])cc5)CC[C@]4(C)[C@H]3CC[C@]12C` (stereo partly drawn) [Compound 10, (3S)-4-(((3R,5R,8R,9S,10S,13R,14S)-17-((R)-1-azido-16-oxo-3,6,9,12,15-pentaoxaicosan-19-yl)-10,13-dimethylhexadecahydro-1H-cyclopenta[a]phenanthren-3-yl)oxy)-3-(4-nitrobenzamido)-4-oxobutanoic acid], the “selectivity ratio ST3GALI/ST6GALI” value [1] was >67, the IC50 [1] was 7.45 ± 0.36 µM and the inhibition at 500 µM [2] was 0%.
